Results reported in PubChem BioAssay AID1259407 (Chemical Carcinogenesis Research Information System (CCRIS), 2018).
Calls of active or inactive are those of the source. The rule behind the calls is not given here.

Test system: CCRIS mutagenicity, Ames/micronucleus/aberration tests
Test: CCRIS mutagenicity studies

Measured: mutagenic call

O=CNc1nc(-c2ccc([N+](=O)[O-])o2)cs1
active: Test System: AMES SALMONELLA TYPHIMURIUM, Strain/Indicator: TA100, Metabolic Activation: NONE, Method: STANDARD PLATE active; positive | Test System: AMES SALMONELLA TYPHIMURIUM, Strain/Indicator: TA100, Metabolic Activation: RAT, LIVER, S-9, KC500 OR PHENOBARBITAL, Method: LIQUID SUSPENSION active; positive | Test System: E. COLI, Strain/Indicator: WP2, Metabolic Activation: NONE, Method: SPOT active; positive | Test System: E. COLI, Strain/Indicator: WP2, Metabolic Activation: NONE, Method: STANDARD PLATE active; positive | Test System: E. COLI, Strain/Indicator: WP2 UVRA, Metabolic Activation: HAMSTER, LIVER, S-9, AROCLOR 1254, Method: STANDARD PLATE active; positive | Test System: E. COLI, Strain/Indicator: WP2 UVRA, Metabolic Activation: HAMSTER, LIVER, S-9, Method: STANDARD PLATE active; positive | Test System: E. COLI, Strain/Indicator: WP2 UVRA, Metabolic Activation: MOUSE, LIVER, S-9, AROCLOR 1254, Method: STANDARD PLATE active; positive | Test System: E. COLI, Strain/Indicator: WP2 UVRA, Metabolic Activation: MOUSE, LIVER, S-9, Method: STANDARD PLATE active; positive | Test System: E. COLI, Strain/Indicator: WP2 UVRA, Metabolic Activation: NONE, Method: SPOT active; positive | Test System: E. COLI, Strain/Indicator: WP2 UVRA, Metabolic Activation: NONE, Method: STANDARD PLATE active; positive | Test System: E. COLI, Strain/Indicator: WP2 UVRA, Metabolic Activation: RAT, LIVER, S-9, AROCLOR 1254, Method: STANDARD PLATE active; positive | Test System: E. COLI, Strain/Indicator: WP2 UVRA, Metabolic Activation: RAT, LIVER, S-9, Method: STANDARD PLATE active; positive
